Measurements as given in patent publication US20260008780A1, “SUBSTITUTED 3,4-DIHYDROISOQUINOLIN-1(2H)-ONE DERIVATIVES AND RELATED USES” (NodThera Limited, priority 2022, published 2026).

Test system: IL-1β release upon NLRP3 activation in peripheral blood mononuclear cells (PBMC)
Assay: PBMC IC50 Determination Assay
Type: cell-based
Details: Homo sapiens; PBMC from buffy coats, LPS 3 h, compound 30 min, then ATP (5 mM) or nigericin (10 μM) 1 h; IL-1β in media by ELISA (Protocol A) or HTRF (Protocol B)
Experimental: The compounds of the present disclosure were tested for their inhibitory activity against IL-1β release upon NLRP3 activation in peripheral blood mononuclear cells (PBMC).
Protocol A. PBMC were isolated from buffy coats by density gradient centrifugation on Histopaque-1077 (Sigma, cat no. 10771). Isolated cells were seeded into the wells of a 96-well plate and incubated for 3 h with lipopolysaccharide (LPS). Following medium exchange, the compounds of the present disclosure were added (a single compound per well) and the cells were incubated for 30 min. Next, the cells were stimulated either with ATP (5 mM) or nigericin (10 μM) for 1 h and the cell culture media from the wells were collected for further analysis.
The release of IL-1β into the media was determined by a quantitative detection of IL-1β in the media using an IL-1p enzyme-linked immunosorbent assay (ELISA) Ready-SET-Go!, eBioscience cat. No. 88-7261-88. Briefly, in a first step, high affinity binding plates (Corning, Costar 9018 or NUNC Maxisorp Cat No. 44-2404) were coated overnight at 4° C. with specific capture antibody included in the kit (anti-human IL-1β ref 14-7018-68). Subsequently, plates were blocked with blocking buffer for 1 h at room temperature (rt) and after washing with a buffer (PBS with 0.05% Tween-20) incubated with protein standard and culture media. After 2 h of incubation at rt, plates were washed and incubated with biotinylated detection antibody included in the kit (anti-human IL-1β Biotin ref. 33-7110-68) for 1 h at rt. Plates were washed and incubated with HRP-streptavidin for 30 min at rt and washed again. The signal was developed after addition of 3,3′,5,5′-tetramethylbenzidine-peroxidase (TMB) until colour appeared and the reaction was stopped by 2 M H2SO4. A microplate spectrophotometer (BioTek) was used to detect signals with 450 nm. The detection range of IL-1β ELISA was […].
Protocol B. PBMC were isolated from buffy coats by density gradient centrifugation on Histopaque-1077 (Sigma, cat no. 10771). Isolated cells were seeded into the wells (280,000 cells/well) of a 96-well plate and incubated for 3 h with lipopolysaccharide (LPS, 1 μg/mL diluted 1000× from a 1 mg/mL stock solution). The compounds of the present disclosure were added (a single compound per well) and the cells were incubated for 30 min. Next, the cells were stimulated with ATP (5 mM final concentration diluted 20× from a 100 mM stock solution) for 1 h and the cell culture media from the wells were collected for further analysis.
The release of IL-1β into the media was determined by quantitative detection of IL-1β in the media using HTRF®, CisBio cat. No. 62HIL1BPEH. Briefly, cell culture supernatant were dispensed directly into the assay plate containing antibodies labelled with the HTRF® donor and acceptor. A microplate spectrophotometer (BMG) was used to detect signals at 655 nm and 620 nm. The detection range of IL-1β HTRF® was 39-6500 μg/mL.

Structure (SMILES)	IC50
CCNc1nc2c(s1)C(=O)N(CC(=O)Nc1ncccn1)CC2C (centres unmarked) [Compound 73, 2-(2-(Ethylamino)-7-methyl-4-oxo-6,7-dihydrothiazolo[5,4-c]pyridin-5(4H)-yl)-N-(pyrimidin-2-yl)acetamide]	10000 to 50000 nM
CNc1cc2c(s1)C(=O)N(CC(=O)Nc1ncccn1)CC21CC1 [Compound 74, 2-(2′-(Methylamino)-7′-oxo-5′H-spiro[cyclopropane-1,4′-thieno[2,3-c]pyridin]-6′(7′H)-yl)-N-(pyrimidin-2-yl)acetamide]	100 to 1000 nM
O=C(CN1CC2(CC2)c2cc(CC(F)F)sc2C1=O)Nc1ncccn1 [Compound 75, 2-(2′-(2,2-Difluoroethyl)-7′-oxo-5′H-spiro[cyclopropane-1,4′-thieno[2,3-c]pyridin]-6′(7′H)-yl)-N-(pyrimidin-2-yl)acetamide]	1000 to 3000 nM
O=C(CN1CC2(CC2)c2cc(C3CC3)sc2C1=O)Nc1ncc(F)cn1 [Compound 76, 2-(2′-Cyclopropyl-7′-oxo-5′H-spiro[cyclopropane-1,4′-thieno[2,3-c]pyridin]-6′(7′H)-yl)-N-(5-fluoropyrimidin-2-yl)acetamide]	100 to 1000 nM
C[C@@H]1CN(CC(=O)Nc2ncccn2)C(=O)c2sc(C3CC3)nc21 [Compound 77]	1000 to 3000 nM
